Measured values reported in patent US20230144898A1, “INHIBITOR OF ASPARTIC ACID SYNTHESIS IN TUMOR CELLS, INHIBITOR OF SPHEROID FORMATION OF TUMOR CELLS, INHIBITOR OF TUMOR CELL METASTASIS, ACTIVITY ENHANCER OF GLYCOLYTIC INHIBITOR, AND PHARMACEUTICAL COMPOSITION FOR SUPPRESSING AND/OR PREVENTING TUMOR METASTASIS” (CCI HOLDINGS INC., priority 2020, published 2023).
Values joined by “and” are separate entries in the source; they are usually repeats but may differ in a detail not shown here. Identical values can stand only once. “Also recorded” adds a separate entry of the source. Like-named read-outs stand apart in the source and are kept apart here.

Columns and labels:
[1] = test system: CMeCl cells (canine malignant melanoma cells); test: Proliferation inhibition, CMeC1 cells, trypan blue viable cell count (Test Example 1); assay type: cell-based; settings: for IC50: Cell line: CMeC1, incubated for 72 hours
Experimental: Four compounds of petasin, S-petasin, neopetasin and neo-S-petasin were evaluated for the inhibitory effect on proliferation of mouse or canine malignant melanoma cells by the following method.
B16F10 cells (mouse malignant melanoma cells) were obtained from JCRB Cell Bank (National Institutes of Biomedical Innovation, Health and Nutrition). In addition, CMeCl cells (canine malignant melanoma cells) were obtained from Veterinary Surgery Laboratory, Graduate School of Agricultural and Life Sciences, the University of Tokyo. Furthermore, A2058 cells (human malignant melanoma cells) were obtained from JCRB Cell Bank (National Institutes of Biomedical Innovation, Health and Nutrition). B16F10 cells were cultured in a 37° C. incubator (air/CO2 = 95/5 (v/v)) using Dulbecco’s modified Eagle’s medium (DMEM), CMeCl cells in RPMI (Roswell Park Memorial Institute) medium (RPMI1640), and A2058 cells in E-MEM medium.
(§1) First, CMeCl cells (canine malignant melanoma cells) were seeded in a six-well plate so as to be 0.5×10^5 cells/mL, and after 24 hours therefrom, each of the above four kinds of compounds (final concentration: 0.01 to 100 µg/mL) was suspended in the medium at a ratio of 0.1% and incubated for 72 hours. 72 hours after the start of culture, the number of viable cells was measured by trypan blue staining. At this time, viable cells (cell viability%) were calculated as the relative number of cells when the number of viable cells in a negative control section (DMSO treatment) was taken as 100%. Then, IC50 was calculated using a GraphPad Prism software system (GraphPad Software Inc.).

[2] = test system: ASF4-1 cells (normal human skin-derived fibroblasts); test: Proliferation inhibition, normal fibroblasts compared with tumor cells (Test Example 1); assay type: cell-based
Experimental: as §1
Furthermore, the results of the same test as described above using ASF4-1 cells, which are normal human skin-derived fibroblasts, and A2058 cells, which are human malignant melanoma cells, are shown in FIG. 1C in comparison with the case of using B16F10 cells.

[3] = Cell proliferation inhibition assay (Test Example 14); assay type: cell-based; settings: compared with petasin, S-petasin and S-neopetasin
Experimental: In this test example, IC50 values in the cell proliferation inhibition assay for petasin, neopetasin, S-petasin and S-neopetasin were measured in addition to the Petasites japonicus extract (whole extract).

[4] = test system: mitochondria in B16F10 cells; test: MitoTracker Orange staining of mitochondria (Test Example 8); assay type: cell-based, mouse
Experimental: In order to determine the action mechanism of neopetasin on inhibiting the aspartic acid synthesis in tumor cells, the influence of neopetasin on mitochondria in B16F10 cells was evaluated. Specifically, B16F10 cells treated with neopetasin (3 µM) for 48 hours through the same method as in Test Example 1 were stained using MitoTracker Orange (Thermo Fisher Scientific, MA, USA), which labels mitochondria depending on membrane potential. In addition, as a positive control section, in place of neopetasin, metformin known as a mitochondrial respiratory chain Complex I inhibitor (mitochondrial toxin) was used at a concentration of 5000 µM to perform the same experiment. Subsequently, the cells stained as described above were photographed with a fluorescence microscope (FIG. 9A). In addition, the relationship between fluorescence intensity of the cells and the distribution of the number of cells was measured using an image cytometer (Tali, Thermo Fisher Scientific, MA, USA) (FIG. 9B).

[5] = test system: B16F10 cells (mouse malignant melanoma cells); test: Proliferation inhibition, B16F10 cells (Test Example 1); assay type: cell-based; settings: B16-F10, read-out: IC50, proliferation inhibitory activity on B16F10 cells
[6] = test system: mitochondrial respiratory chain Complex I; test: MitoCheck Complex Activity Assay (Test Example 9); assay type: biochemical; settings: II, II/III, IV and V tested
Experimental: Specifically, using the MitoCheck Complex Activity Assay Kit (Cayman Chemical Company, Ann Arbor, MI, USA), extent of relative activity of each of Complex I, Complex II, Complex II/III, Complex IV and Complex V constituting the mitochondrial respiratory chain that was reduced by neopetasin treatment was examined. Furthermore, as a negative control section, DMSO was administered to perform the same experiment. In addition, as a positive control section, rotenone (Complex I), TTFA (Complex II), antimycin A (Complexes II/III), KCN (Complex IV), and oligomycin (Complex V) were each administered, and the same experiment was conducted.

A2058 cells = test: KEGG Pathway analysis using microarray (Test Example 6); assay type: cell-based, human; settings: 3 µM, 8 hours
Experimental: The signaling pathways affected by neopetasin treatment were examined by KEGG Pathway analysis using the microarray. Specifically, A2058 cells were seeded at 0.5×10^5 cells/mL in a six-well plate, and after 24 hours of seeding, neopetasin (final concentration: 3 µM) was suspended in a medium and incubated for 8 hours. A2058 cells thus treated with neopetasin (3 µM) for 8 hours were recovered with a cell scraper. Furthermore, DMSO was administered to the negative control section, and the same experiment was performed. Next, data was collected using SurePrint G3 Human CGH microarray 8x60K (Agilent, CA, USA) and the raw data obtained for each sample was normalized with 75 percentile values (global normalization). Then, using Gene Set Enrichment Analysis (GSEA, Broad Laboratory, Massachusetts Institute of Technology, MA, USA), pathways registered in KEGG, Reactome, and GO were searched.
In FIG. 7, the genes with increased expression are shown in red, the gene groups with decreased expression are shown in blue, and the gene groups with changes therebetween are shown in white. […] In addition, when the heat map was drawn, gene groups included in the variable pathways were extracted, and the log-transformed signal data was subjected to cluster analysis by Ward’s method using JMP version 12.2.0 (SAS Institute Inc.).

In the case of C=C(C)[C@H]1C[C@@]2(C)C(=CC1=O)CC[C@@H](OC(=O)/C(C)=C\C)[C@@H]2C [Neopetasin, neopetasin], the “inhibitory effect on proliferation of CMeCl cells” value ([1]; 72 hours) is reported as “showed the strongest activity”, the IC50 ([1]; Canis lupus familiaris, 72 h, read-out: IC50) is reported as 0.99 µM and the IC50 ([1]; Canis lupus familiaris, 72 h, read-out: IC50 (µg/mL)) is reported as 0.314 µg/mL. The IC50 ([1]; read-out: IC50) was 0.991 µM, the “inhibitory effect on proliferation of / cytotoxicity to normal cells” value ([2]; ASF4-1 cells) was “hardly exhibits the inhibitory effect on proliferation of normal cells; also recorded: shows no cytotoxicity” and the “IC50 for ASF4-1 cells (normal cells) relative to IC50 for tumor cells” value ([2]; versus A2058 cells and B16F10 cells) was no less than 1000 fold. The “cell proliferation inhibition activity (IC50 comparison)” value [3] was “superior cell proliferation inhibition activity to the other three compounds”, the “activity relative to metformin” value ([4]; neopetasin 3 µM vs metformin 5000 µM) was no less than 1000 times and the “MitoTracker Orange fluorescence intensity” value ([4]; neopetasin 3 µM, metformin 5000 µM, 48 hours) was “enhanced fluorescence intensity”. The IC50 [5] was 493 nM and 0.156 µg/mL, the “relative activity of mitochondrial respiratory chain complexes” value [6] was “selectively reduced only the relative activity of the mitochondrial respiratory chain Complex I” and the “changes in asparagine synthetase (ASNS) and cystathionine gamma-lyase (CTH)” value (A2058 cells) was “particularly significant changes”. For the same molecule, the “expression of molecules involved in amino acid metabolism” value (A2058 cells) was “greatly varies”.
